Assay results published in patent publication US12291511B2, “Polymerase inhibitors and related compositions and methods” (Promega Corporation, priority 2018, dated 2025).

Tests used:
Type in all cases: biochemical
Taq [1] = target: T1, Taq (Thermus aquaticus, UniProt P19821); assay: Hot-start PCR of CCR5 gene (500 bp amplicon) with human genomic DNA as template; conditions: CCR5 target; for 500 bp yield: compared with no hot-start (GoTaq® DNA Polymerase)
Excerpt: Testing of Human Genomic Templates. FIG. 11 includes a representative image of an agarose gel used to evaluate the CCR5 gene amplification products of various hot-start PCR reactions performed with and without two different polymerase inhibitors (compound #7124 and compound #7261) and using human genomic DNA as a template. The target amplicon is 500 bp, and without the use of hot-start, there is a significant amount of primer dimer. With compound #7124 and compound #7261, the 500 bp yield increased, but primer dimer amounts remained (compare to GoTaq® DNA Polymerase treatment for no hot-start and GoTaq® Hot-Start DNA Polymerase with an antibody-mediated hot-start). Reaction components are provided in Table 2 below; the following cycling methods were used: [(22° C. for 90 min, 94° C. for 2 min) 1 cycle, (92° C. for 30 sec, 68° C. for 2 min) 45 cycles, (72° C. for 5 min) 1 cycle, 4° C. soak].

Taq [2] = target: T1, Taq; assay: Hot-start PCR of Human Dystrophin Alu 7-2 gene (320 bp amplicon) with human genomic DNA as template; conditions: HD Alu 7-2 target; for secondary products (seen as a smear): at certain concentrations; for 320 bp yield: human genomic DNA, compared with no hot-start
Procedure: FIG. 12 includes a representative image of an agarose gel used to evaluate the Human Dystrophin Alu-72 gene amplification products of various hot-start PCR reactions performed with and without two different polymerase inhibitors (compound #7124 and compound #7261) and using human genomic DNA as a template. The target amplicon is 320 bp, and without hot-start, there is less yield. […] Reaction components are provided in Table 2 below; the following cycling methods were used: [(22° C. for 90 min, 94° C. for 2 min) 1 cycle, (94° C. for 50 sec, 59° C. for 50 sec, 68° C. for 2 min) 42 cycles, 4° C. soak].

Taq DNA Polymerase = Taq DNA Polymerase (Thermus aquaticus, UniProt P19821); assay: Activated calf thymus DNA polymerase activity assay (radioactive incorporation) at 22° C.
Sequence of Taq DNA Polymerase (P19821 whole entry): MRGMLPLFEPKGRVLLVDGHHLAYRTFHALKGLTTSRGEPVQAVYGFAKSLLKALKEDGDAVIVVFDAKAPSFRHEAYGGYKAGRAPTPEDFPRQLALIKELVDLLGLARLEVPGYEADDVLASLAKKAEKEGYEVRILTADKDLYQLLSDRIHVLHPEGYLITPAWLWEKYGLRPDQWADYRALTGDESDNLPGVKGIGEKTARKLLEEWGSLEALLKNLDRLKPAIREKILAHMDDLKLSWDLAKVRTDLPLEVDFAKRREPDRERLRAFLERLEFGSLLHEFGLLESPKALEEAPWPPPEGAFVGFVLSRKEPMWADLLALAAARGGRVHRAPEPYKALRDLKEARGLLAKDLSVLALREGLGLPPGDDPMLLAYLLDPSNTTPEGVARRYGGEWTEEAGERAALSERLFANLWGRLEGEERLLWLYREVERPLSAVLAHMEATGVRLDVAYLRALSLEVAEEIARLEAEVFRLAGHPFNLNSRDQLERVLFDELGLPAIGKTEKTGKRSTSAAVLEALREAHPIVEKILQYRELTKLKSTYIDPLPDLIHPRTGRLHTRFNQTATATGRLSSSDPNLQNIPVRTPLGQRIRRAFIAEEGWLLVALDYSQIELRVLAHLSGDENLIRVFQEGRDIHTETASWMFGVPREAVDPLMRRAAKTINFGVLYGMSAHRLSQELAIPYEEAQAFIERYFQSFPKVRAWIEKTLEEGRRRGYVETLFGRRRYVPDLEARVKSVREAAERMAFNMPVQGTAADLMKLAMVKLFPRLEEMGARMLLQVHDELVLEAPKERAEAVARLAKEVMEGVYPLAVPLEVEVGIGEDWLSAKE
Procedure: Activity assays were used to test the concentrations of small molecule polymerase inhibitors in specific reaction conditions to determine inhibition efficacy. Corresponding IC50 values were also determined for the compounds. Activity assays were also used to test the temperatures or temperature ranges at which the reactions are inhibited by the compounds.
Exemplary activity assays can be carried out according to a variety of methods. For example, a DNA polymerase activity assay monitoring radioactive incorporation where “activated” calf thymus or salmon sperm DNA is used as the DNA substrate. Along with the DNA substrate, the reactions minimally contain a buffer (e.g., GoTaq® buffer), magnesium, dNTPs, and polymerase. Reactions were stopped, and DNA was precipitated by ice-cold TCA (tricholoracetic acid), incubated on ice for at least 10 minutes, filtered using GF/C filters, and radioactive incorporation in precipitable DNA (on filter) measured by scintillation counting. (See, e.g., Apospian & Kornberg. (1962) JBC 237:519-525.; Chien et al. (1976) J. Bact. 127:1550-1557.)
FIG. 7 includes a representation of a polymerase activity assay carried out at 22° C., where an inhibitor (i.e. compound #7124) is titrated. FIG. 7 is an example of an activity assay where IC50 can be determined. […] Activated calf thymus DNA activity assay was used in these experiments. […]

[3] = target: T2, GoTaq® DNA Polymerase (Taq DNA polymerase) (Thermus aquaticus, UniProt P19821); assay: Hot-start PCR of 1.5 kb fragment of the Corynephage omega gene from plasmid DNA, after 22° C. pre-incubation, agarose gel read-out; conditions: '25 to 150 μM or greater' for the derivatives
T2 construct: purchased
T2 sequence (P19821 whole entry, the tested form may be a part): as the sequence (P19821 whole entry) above
Procedure: When carried out using hot-start conditions, the polymerase (e.g., Taq polymerase) was inhibited at lower temperatures, but activated at the start of amplification when temperatures increased to denature the DNA (e.g., 95° C.); the amplification produced a single product approximately 1.5 kb in size. When carried out using non-hot-start conditions, the DNA polymerase was not inhibited at lower temperatures, and amplification produced a product approximately 400 bp in size (among other secondary products), and the 1.5 kb fragment was transiently present. To test the ability of the thermally-labile small molecule polymerase to inhibit DNA polymerase (e.g., Taq DNA polymerase) activity, the amplification reactions were incubated at 22° C. for 1.5 to 6 hours or longer prior to performing PCR amplification.
The amplifications were set up at room temperature. The thermally-labile small molecule polymerase inhibitor(s) were titrated (concentrations will depend on exact compound, enzyme being inhibited, detergent concentration, and other buffer conditions) into reactions. For these experiments, the following composition were used: 1× GoTaq® Colorless Flexi Buffer, 2.5 mM MgCl2, 200 μM each dNTP, 0.4 μM each primer, 0.025 U/μl GoTaq® DNA Polymerase, 500 pg plasmid DNA and nuclease-free water to bring it to a 25 μl reaction. […]

T1 sequence (P19821 whole entry): as above

Compound	primer dimer amounts (Taq [1])	500 bp yield (Taq [1])	secondary products (seen as a smear) (Taq [2])	320 bp yield (Taq [2])	inhibition ultimately reached as concentration increased (Taq DNA Polymerase; high inhibitor concentration) [%]	IC50 (Taq DNA Polymerase; titration of inhibitor, calculated from graph (FIG. 7)) [µM]	potency of DNA polymerase inhibitors (summary comparison of #7261 with derivatives) [3]
CCCCCCCCCCCCC(OC(=O)NCCCS(=O)(=O)[O-])c1ccc(OC)cc1.[Na+] (centres unmarked) [compound #7124, Sodium 3-((((1-(4-methoxyphenyl)tridecyl)oxy)carbonyl)amino)propane-1-sulfonate]	remained	increased	dramatically decreased	increased	100	~150	–
CCCCCCCCCCCCC(OC(=O)NCCCS(=O)(=O)[O-])c1ccc(Cl)o1.[Na+] (centres unmarked) [compound #7261, Sodium 3-((((1-(5-chlorofuran-2-yl)tridecyl)oxy)carbonyl)amino)propane-1-sulfonate]	remained	increased	dramatically decreased	increased	–	–	about 75 μM
